pEC50: −log10 of the molar value. Where two headings read alike, the source gives them in different places.
Test system: FRDA fibroblasts
Experiment: Rescue of FRDA fibroblasts stressed by L-buthionine-(S,R)-sulfoximine (BSO), viability by Calcein AM fluorescence
Format: cell-based, human
Settings: for pEC50: BSO-stressed (1 mM) FRDA fibroblasts GM04078
Experimental: An initial screen was performed to identify compounds effective for the amelioration of redox disorders. Test samples, 4 reference compounds (idebenone, decylubiquinone, Trolox and α-tocopherol acetate), and solvent controls were tested for their ability to rescue FRDA fibroblasts stressed by addition of L-buthionine-(S,R)-sulfoximine (BSO), as described in Jauslin et al., Hum. Mol. Genet. 11(24):3055 (2002), Jauslin et al., FASEB J. 17:1972-4 (2003), and International Patent Application WO 2004/003565. […] This specific BSO-mediated cell death can be prevented by administration of antioxidants or molecules involved in the antioxidant pathway, such as α-tocopherol, short chain quinones, selenium, or small molecule glutathione peroxidase mimetics. However, antioxidants differ in their potency, i.e. the concentration at which they are able to rescue BSO-stressed FRDA fibroblasts. With this assay EC50 concentrations of the test compounds were determined and compared to known reference antioxidants.
MEM (a medium enriched in amino acids and vitamins, catalog no. 1-31F24-I) and Medium 199 (M199, catalog no. 1-21F224) with Earle's Balanced Salts, without phenol red, were purchased from Bioconcept. Fetal Calf Serum was obtained from PAA Laboratories. Basic fibroblast growth factor and epidermal growth factor were purchased from PeproTech. Penicillin-streptomycin-glutamine mix, L-buthionine (S,R)-sulfoximine, (+)-α-tocopherol acetate, decylubiquinone, and insulin from bovine pancreas were purchased from Sigma. Trolox (6-hydroxy-2,5,7,8-tetramethylchromane-2-carboxylic acid) was obtained from Fluka. Idebenone was obtained from Chemo Iberica. Calcein AM was purchased from Molecular Probes. Cell culture medium was made by combining 125 ml M199 EBS, 50 ml Fetal Calf Serum, 100 U/ml penicillin, 100 μg/ml streptomycin, 2 mM glutamine, 10 μg/ml insulin, 10 ng/ml EGF, and 10 ng/ml bFGF; MEM EBS was added to make the volume up to 500 ml. A 10 mM BSO solution was prepared by dissolving 444 mg BSO in 200 ml of medium with subsequent filter-sterilization. During the course of the experiments, this solution was stored at +4° C. The cells were obtained from the Coriell Cell Repositories (Camden, N.J.; repository number GM04078) and grown in 10 cm tissue culture plates. Every third day, they were split at a 1:3 ratio.
The test samples were supplied in 1.5 ml glass vials. The compounds were diluted with DMSO, ethanol or PBS to result in a 5 mM stock solution. Once dissolved, they were stored at −20° C. Reference antioxidants (idebenone, decylubiquinone, α-tocopherol acetate and trolox) were dissolved in DMSO.
Test samples were screened according to the following protocol: A culture with FRDA fibroblasts was started from a 1 ml vial with approximately 500,000 cells stored in liquid nitrogen. Cells were propagated in 10 cm cell culture dishes by splitting every third day in a ratio of 1:3 until nine plates were available. Once confluent, fibroblasts were harvested. For 54 micro titer plates (96 well-MTP) a total of 14.3 million cells (passage eight) were re-suspended in 480 ml medium, corresponding to 100 μl medium with 3,000 cells/well. The remaining cells were distributed in 10 cm cell culture plates (500,000 cells/plate) for propagation. The plates were incubated overnight at 37° C. in a atmosphere with 95% humidity and 5% CO2 to allow attachment of the cells to the culture plate.
MTP medium (243 μl) was added to a well of the microtiter plate. The test compounds were unfrozen, and 7.5 μl of a 5 mM stock solution was dissolved in the well containing 243 μl medium, resulting in a 150 μM master solution. Serial dilutions from the master solution were made. The period between the single dilution steps was kept as short as possible (generally less than 1 second).
Plates were kept overnight in the cell culture incubator. The next day, 10 μl of a 10 mM BSO solution were added to the wells, resulting in a 1 mM final BSO concentration. […]

Row | SMILES | pEC50 (average of three experiments, read-out: EC50 Average) | pEC50 (first of three experiments, read-out: EC50 Value 1) | pEC50 (second of three experiments, read-out: EC50 Value 2) | pEC50 (third of three experiments, read-out: EC50 Value 3) | pEC50 (Homo sapiens, average of three experiments, read-out: EC50 Average) | pEC50 (Homo sapiens, first of three experiments, read-out: EC50 Value 1) | pEC50 (Homo sapiens, second of three experiments, read-out: EC50 Value 2) | EC50 fold lower than alpha-D-tocopherol (human cell culture model of FRDA, relative to alpha-D-tocopherol) | EC50 fold lower than idebenone (human cell culture models of FRDA, relative to idebenone)
1 | CC(=O)Oc1c(C)c(C)c2c(c1C)CC[C@@](C)(CCC[C@H](C)CCC[C@H](C)CCCC(C)C)O2 [α-tocopherol acetate, (+)-α-tocopherol acetate, reference compound] | 6.52 | 6.40 | 6.82 | 6.46 |  |  |  |  | 
2 | CC1=C(C)C(=O)C(CC[C@](C)(O)CCC[C@H](C)CCC[C@H](C)CCCC(C)C)=C(C)C1=O [α-tocopherol quinone, 2-[(3R,7R,11R)-3-hydroxy-3,7,11,15-tetramethylhexadecyl]-3,5,6-trimethyl-2,5-cyclohexadiene-1,4-dione] |  |  |  |  | 11.85 | 12.00 | 11.52 | 10^4 fold | 10^5 fold

Reference: US11021424B2, “Redox-active therapeutics for treatment of mitochondrial diseases and other conditions and modulation of energy biomarkers” (PTC THERAPEUTICS, INC., priority 2005, dated 2021)
